Experimental data from patent US10278942B2 (PELOTON THERAPEUTICS, INC., priority 2015, dated 2019).
Where two headings read alike, the source gives them in different places.

Target: T1, HIF-2α HIS TAG-PASB Domain (Homo sapiens, UniProt Q99814)
T1 construct: 100 nM HIF-2α HIS TAG-PASB Domain
Test: HIF-2α Scintillation Proximity Assay (SPA)
Format: binding
Description: The total assay volume was about 100 μL in the following configuration: 2 μL compound in 100% DMSO, 88 μL buffer with protein and probe and 10 μL of SPA beads. […] The percent inhibition was determined and IC50 values were calculated using the Dotmatics system based on the following equation: % inhibition=[(high control−sample)/(high control−low control)]×100.

[1] = read-out: Scintillation Proximity Assay IC50
[2] = Scintillation Proximity Assay IC50 (nM)

T1 sequence (Q99814 240-350 limits assumed): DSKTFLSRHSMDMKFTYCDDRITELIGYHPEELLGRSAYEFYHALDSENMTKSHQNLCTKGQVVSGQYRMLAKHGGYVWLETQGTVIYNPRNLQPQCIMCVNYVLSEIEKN

SMILES | IC50 [1] | IC50 [2]
O=S(=O)(c1ccc(Nc2ccc(F)c(Cl)c2)c2c1C(O)CC2)C(F)(F)F (centres unmarked) [Compound 504] | > 1000 nM | –
CS(=O)(=O)c1ccc(Oc2cc(F)cc(Cl)c2)c2c1C(O)CC2CO (centres unmarked) [Compound 281] | 250 to 1000 nM | –
NCC1(O)CCc2c(OCC(F)F)ccc(C(F)(F)F)c21 (centres unmarked) [Compound 705] | > 1000 nM | –
Cc1n[nH]c(C)c1-c1ccc(S(=O)(=O)C(F)(F)F)c2c1CC(F)(F)[C@H]2O [Compound 562] | > 1000 nM | –
NC(=O)Cc1ccc(S(=O)(=O)C(F)(F)F)c2c1CC(F)(F)[C@H]2O [Compound 527] | > 1000 nM | –
C=CS(=O)(=O)c1ccc(Oc2cc(F)cc(Cl)c2)c(Br)c1 [Compound 130] | > 1000 nM | –
Cc1c(Oc2cc(F)cc(C#N)c2)ccc(S(=O)(=O)C(F)(F)F)c1C#CCO [Compound 142] | > 1000 nM | –
COC1Cc2c(OCC(F)F)ccc(C(F)(F)F)c2C1O (centres unmarked) [Compound 668] | > 1000 nM | –
CC1(C)C=C(c2ccc(S(=O)(=O)C(F)(F)F)c3c2CC(F)(F)[C@H]3O)C(O)CC1 (some centres unmarked) [Compound 543] | > 1000 nM | –
OC1c2c(F)ccc(OCC(F)F)c2CC1(F)F (centres unmarked) [Compound 652] | > 1000 nM | –
CS(=O)(=O)c1ccc(Oc2cc(F)cc(C#N)c2)c2c1[C@H](O)CC2(F)F [Compound 288] | > 1000 nM | –
COC(C)COc1ccc(S(=O)(=O)C(F)(F)F)c2c1CCC2O (centres unmarked) [Compound 625] | > 1000 nM | –
CCOc1ccc2c(c1C(F)F)[C@@H](O)C(F)(F)S2(=O)=O [Compound 438] | > 1000 nM | –
CC(=O)c1c(S(=O)(=O)C(F)(F)F)ccc(Oc2cc(F)cc(C#N)c2)c1C#N [Compound 79] | > 1000 nM | –
CS(=O)(=O)c1ccc(Nc2cncc(Cl)c2)c2c1C(O)C(F)(F)C2 (centres unmarked) [Compound 500] | > 1000 nM | –
N#CCS(=O)(=O)c1ccc(Oc2cc(F)cc(F)c2)c2c1C(O)CC2 (centres unmarked) [Compound 14] | > 1000 nM | –
O=S(=O)(c1ccc(OC2CCOC2)c2c1C(O)CC2)C(F)(F)F (centres unmarked) [Compound 596] | > 1000 nM | –
Cc1c(Oc2cc(F)cc(C#N)c2)ccc(S(=O)(=O)C(F)(F)F)c1/C=C/c1nnco1 [Compound 150] | > 1000 nM | –
Cc1c(Oc2cc(F)cc(C#N)c2)ccc(S(=O)(=O)C(F)(F)F)c1Br [Compound 141] | 50 to 249 nM | –
CN1CCCC(Oc2ccc(S(=O)(=O)C(F)(F)F)c3c2CC(F)(F)C3O)C1 (centres unmarked) [Compound 634] | > 1000 nM | –
O=S(=O)(c1ccc(Oc2cc(F)cc(Cl)c2)c(Cl)c1CNC1CCOCC1)C(F)F [Compound 48] | 250 to 1000 nM | –
O=S(=O)(c1ccc(Oc2ccc(F)cc2F)c(Br)c1)C(F)(F)F [Compound 175] | > 1000 nM | –
N#Cc1cc(F)cc(Oc2ccc(S(N)(=O)=O)c3c2[C@@H](O)C(F)(F)[C@H]3O)c1 [Compound 337] | > 1000 nM | –
CC1(O)c2c(ccc(OCc3ccccc3)c2C#N)S(=O)(=O)C1(F)F (centres unmarked) [Compound 459] | > 1000 nM | –
CS(=O)(=O)c1ccc(N2CCC[C@@H](O)C2)c2c1[C@H](O)C(F)(F)[C@@H]2F [Compound 553] | > 1000 nM | –
O=S(=O)(c1ccc(C2CC2)c2c1C(O)CC2)C(F)(F)F (centres unmarked) [Compound 512] | > 1000 nM | –
COc1ccc(S(C)(=O)=O)c2c1CC(F)(F)[C@H]2O [Compound 777] | > 1000 nM | –

SMILES | IC50 [1] | IC50 [2]
COc1ccc(S(=O)(=O)C(F)(F)F)c2c1CC(F)(F)C2O (centres unmarked) [Compound 590] | > 1000 nM | –
O=S(=O)(c1ccc(NC2CCOCC2)c2c1[C@H](O)CC2)C(F)F [Compound 494, (1R)-7-(difluoromethylsulfonyl)-4-(tetrahydropyran-4-ylamino)indan-1-ol] | > 1000 nM | –
O=C1c2c(ccc(Oc3cc(F)cc(Cl)c3)c2Br)S(=O)(=O)C12CC2 [Compound 404] | > 1000 nM | –
COCCNC1c2c(ccc(Oc3cc(F)cc(C#N)c3)c2C(F)F)S(=O)(=O)C1(F)F (centres unmarked) [Compound 382] | > 1000 nM | –
O=S(=O)(c1ccc(Oc2ccc3[nH]ncc3c2)c2c1C(O)C(F)(F)C2)C(F)(F)F (centres unmarked) [Compound 238] | > 1000 nM | –
CC(Oc1ccc(S(=O)(=O)C(F)(F)F)c2c1CC(F)(F)C2O)C(=O)N(C)C (centres unmarked) [Compound 647] | > 1000 nM | –
NS(=O)(=O)c1ccc(Oc2cncc(F)c2)c2c1[C@H](O)C(F)(F)[C@@H]2F [Compound 341] | < 50 nM | –
CS(=O)(=O)c1ccc(Nc2ccc(F)cc2)c2c1C(O)CC2 (centres unmarked) [Compound 497] | > 1000 nM | –
CS(=O)(=O)N=S(=O)(CF)c1ccc(Oc2cc(F)cc(C#N)c2)c2c1[C@H](O)C(F)(F)C2 (some centres unmarked) [Compound 284] | > 1000 nM | –
COc1ccc(I)c2c1CC(F)(F)C2O (centres unmarked) [Compound 679] | > 1000 nM | –
NC(=O)Cc1ccc(S(=O)(=O)C(F)(F)F)c2c1CC(F)(F)C2O (centres unmarked) [Compound 526] | > 1000 nM | –
CS(=O)(=O)c1ccc(O[C@H]2CC[C@H](C#N)CC2)c2c1[C@H](O)C(F)(F)[C@@H]2F [Compound 757] | > 1000 nM | –
NCCOc1ccc(S(=O)(=O)C(F)(F)F)c2c1CC(F)(F)C2O (centres unmarked) [Compound 635] | > 1000 nM | –
N=S(=O)(c1ccc(Oc2cc(F)cc(Cl)c2)c(Br)c1)C(F)(F)F (centres unmarked) [Compound 71] | 250 to 1000 nM | –
N#Cc1c(I)ccc(Oc2cc(F)cc(Cl)c2)c1Br [Compound 96] | > 1000 nM | –
CCc1ccc(S(=O)(=O)C(F)(F)F)c2c1CCC2O (centres unmarked) [Compound 514] | > 1000 nM | –
N#Cc1cc(Oc2ccc(S(=O)(=O)C(F)(F)F)c3c2CCC3O)ccc1F (centres unmarked) [Compound 216] | > 1000 nM | –
CS(=O)(=O)c1ccc(Oc2cncc(Br)c2)c2c1[C@H](O)[C@H](F)C2 [Compound 326] | > 1000 nM | –
CS(=O)(=O)c1ccc(O[C@H]2C[C@H](O)C2)c2c1[C@H](O)C(F)(F)[C@@H]2F [Compound 738] | > 1000 nM | –
N#Cc1cncc(Oc2ccc(S(=O)(=O)C(F)F)c3c2CC[C@H]3O)c1 [Compound 4] | > 1000 nM | –
O=S(=O)(c1ccc(Cn2nccn2)c2c1[C@H](O)C(F)(F)C2)C(F)(F)F [Compound 535] | > 1000 nM | –
N#Cc1cc(F)cc(Oc2ccc3c(c2CF)C(O)C(F)(F)S3(=O)=O)c1 (centres unmarked) [Compound 388] | 50 to 249 nM | –
Nc1ncccc1-c1ccc(S(=O)(=O)C(F)(F)F)c2c1CC(F)(F)[C@H]2O [Compound 539] | > 1000 nM | –
N#Cc1cncc(Oc2ccc(S(=O)(=O)CF)c3c2[C@H](F)C(F)(F)[C@H]3O)c1 [Compound 345] | > 1000 nM | –
NC(=O)c1cc(S(=O)(=O)C(F)(F)F)ccc1Oc1cc(F)cc(Cl)c1 [Compound 125] | – | > 1000 nM
COc1ccc(S(=O)(=O)C(F)(F)F)c2c1CCC2O (centres unmarked) [Compound 588] | > 1000 nM | –
O=S(=O)(c1ccc(CC(O)CO)c2c1C(O)C(F)(F)C2)C(F)(F)F (centres unmarked) [Compound 521, 3-(2,2-difluoro-1-hydroxy-7-((trifluoromethyl)sulfonyl)-2,3-dihydro-1H-inden-4-yl)propane-1,2-diol] | > 1000 nM | –

SMILES | IC50 [1] | IC50 [2]
Nc1ccc(Cl)cc1-c1ccc(S(=O)(=O)C(F)(F)F)c2c1CC(F)(F)[C@H]2O [Compound 540] | > 1000 nM | –
N#Cc1c(Oc2cc(F)cc(Cl)c2)ccc2c1[C@H](O)CS2(=O)=O [Compound 407] | > 1000 nM | –
CS(=O)(=O)CCCOc1ccc(S(=O)(=O)C(F)(F)F)c2c1CC(F)(F)C2O (centres unmarked) [Compound 631] | > 1000 nM | –
O/N=C1/c2c(C(F)(F)F)ccc(OCCCF)c2[C@@H](F)C1(F)F [Compound 700] | 50 to 249 nM | –
CC(C)(C)OC(=O)N1CC(Oc2ccc(S(=O)(=O)C(F)(F)F)c3c2CC(F)(F)[C@H]3O)C1 [Compound 791] | > 1000 nM | –
OC1c2c(Br)ccc(OCC(F)F)c2CC1(F)F (centres unmarked) [Compound 687] | > 1000 nM | –
CCOc1ccc(C#N)c2c1CC(F)(F)[C@H]2O [Compound 674] | > 1000 nM | –
O=S(=O)(c1ccc(OCC2CC2)c2c1C(O)CC2)C(F)(F)F (centres unmarked) [Compound 597] | > 1000 nM | –
Fc1cc(Cl)cc(Oc2ccc(C(F)(F)F)c(Cl)c2Br)c1 [Compound 97] | > 1000 nM | –
N#Cc1cc(F)cc(Oc2ccc3c(c2C(F)F)C(N)C(F)(F)S3(=O)=O)c1 (centres unmarked) [Compound 372] | < 50 nM | –
N#Cc1c(Oc2cc(F)cc(F)c2)ccc2c1C(O)(C(F)(F)F)CS2(=O)=O (centres unmarked) [Compound 448] | > 1000 nM | –
CS(=O)(=O)c1ccc(C(F)(F)CO)c2c1[C@H](O)C(F)(F)C2 [Compound 556] | > 1000 nM | –
CS(=O)(=NC#N)c1ccc(Oc2cc(F)cc(F)c2)c2c1C(O)CC2 (centres unmarked) [Compound 189] | > 1000 nM | –
CC1CC(Oc2ccc(S(=O)(=O)C(F)(F)F)c3c2CCC3O)CCO1 (centres unmarked) [Compound 624] | > 1000 nM | –
CS(=O)(=O)c1ccc(Oc2cncc(Cl)c2)c2c1[C@H](O)C(F)(F)[C@@H]2F [Compound 331] | < 50 nM | –
O=S(=O)(c1ccc(Oc2cc(F)cc(Cl)c2)c(CCCO)c1)C(F)(F)F [Compound 126] | > 1000 nM | –
N=S1(=O)c2ccc(Oc3cc(F)cc(F)c3)c(C(F)F)c2C(O)C1(F)F (centres unmarked) [Compound 399] | 50 to 249 nM | –
O=C1Cc2ccc(-c3ccc(S(=O)(=O)C(F)(F)F)c4c3CC(F)(F)[C@H]4O)cc2N1 [Compound 567] | > 1000 nM | –
O=S(=O)(c1ccc(Oc2cc(F)cc(Cl)c2)c(Cl)c1)C(F)(F)F [Compound 128] | – | 50 to 249 nM
C=C1CC(O)c2c(S(C)(=O)=O)ccc(Oc3cc(F)cc(Cl)c3)c21 (centres unmarked) [Compound 280] | > 1000 nM | –
O=S(=O)(c1ccc(CCO)c2c1C(O)C(F)(F)C2)C(F)(F)F (centres unmarked) [Compound 520] | > 1000 nM | –
O=S(=O)(c1ccc(Oc2cccn3ccnc23)c2c1C(O)C(F)(F)C2)C(F)(F)F (centres unmarked) [Compound 246] | > 1000 nM | –
N#Cc1cc(F)cc(Oc2ccc3c(c2C#CCF)C(O)C(F)(F)S3(=O)=O)c1 (centres unmarked) [Compound 410] | > 1000 nM | –
COC(=O)C(C)Oc1ccc(S(=O)(=O)C(F)(F)F)c2c1CC(F)(F)C2O (centres unmarked) [Compound 648] | 250 to 1000 nM | –
Cc1cc(Oc2ccc(S(=O)(=O)C(F)F)c3c2CC(F)(F)C3=O)ccc1F [Compound 197] | 250 to 1000 nM | –
CN1CCC(Oc2ccc(S(=O)(=O)C(F)(F)F)c3c2CC(F)(F)C3O)C1 (centres unmarked) [Compound 642] | > 1000 nM | –
